Holding throughout (assay): inhibition of tumour cell growth, NCI panel, 48 h
Test [1] deals with CCRF-CEM leukemia.
Test [2] deals with SW-620 colon.
The test system of test [3] is NCI-H522 lung.
Test [4] concerns HT29 colon.
Test [5] has as its system HS 578T breast.
The test system of test [6] is NCI-H23 lung.
Test [7] has as its system DU-145 prostate.
Test [8] has as its system SF-295 CNS.
The test system of test [9] is K-562 leukemia.
The test system of test [10] is MCF7 breast.

Each structure is given as a SMILES string.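 Exposure lasted 48 hours, with cells grown in 96-well plates and compounds tested at five concentrations. At the GI50, growth is halved. TGI marks complete inhibition of growth.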

As for `COC(=O)c1c(C(=O)O)c(-c2ccccc2)c(-c2ccccc2)c(-c2ccccc2)c1-c1ccccc1`, the GI50 in [1] is > 100 µM; in test [2], > 100 µM; in [3] it was 88.5 µM; in test [4], > 100 µM; in [5], > 100 µM; in test [6], > 100 µM. Besides, the GI50 in test [7] is > 100 µM; in test [8], > 100 µM; in [9], 87 µM; in test [10], > 100 µM. Besides, the TGI in test [1], in [2], in test [3], in test [4], in test [5] and in test [6] was > 100 µM throughout. For the same compound, the TGI in [7], in test [8], in test [9] and in test [10] was > 100 µM each time.
With `Cc1cc(C)c(-c2c(O)c(Br)c(-c3c(C)cc(C)c(Br)c3C)c(O)c2Br)c(C)c1Br`, the GI50 in [1] is 4.06 µM; in [2] it was 2.94 µM; in test [3], 1.67 µM; in test [4], 2.34 µM; in test [5], 2.32 µM; in [6] it was 3.21 µM. The GI50 in test [7] was 4.21 µM; in test [8], 1.83 µM; in test [9], 2.65 µM; in test [10] it was 2.38 µM. For the same compound, the TGI in [1] came out at 20.2 µM; in test [2] it was 12 µM; in [3], 3.6 µM; in [4], 10.2 µM; in test [5] it was 11.9 µM; in test [6], 11.8 µM. For the same compound, the TGI was 16 µM in [7], 5.01 µM in [8], 13.9 µM in [9] and 11.8 µM in [10].
Take `CN(C)CCN=c1nc2c(c(N)n1-c1ccccc1)c(=S)n(-c1ccccc1)c(=S)n2-c1ccccc1`: the GI50 is 4.68 µM in test [1]; 1.93 µM in [2]; 2.39 µM in test [3]; 1.48 µM in [4]; 1.98 µM in [5]; 13.2 µM in test [6]. For the same compound, the GI50 in test [7] was 4.91 µM; in test [8], 2.31 µM; in test [9], 3.6 µM; in test [10] it was 1.9 µM. Further, the TGI in test [2] was 4.87 µM; in [3], 6.82 µM; in [4], 3.82 µM; in [5] it was 9.51 µM; in test [6] it was 31.9 µM; in test [7] it was 17.7 µM. The TGI in test [8] came out at 6.37 µM; in test [10], 7.39 µM.
As to `C[C@]12CCC3c4ccc(O)cc4CCC3C1CC[C@@H]2NC(=O)/C=C/c1ccc(O)c(O)c1` (stereo partly drawn), the GI50 in test [1] is 3.2 µM; in test [2], 15.9 µM; in test [3] it was 6.25 µM; in [4], 3.97 µM; in test [5], 15.4 µM; in [6] it was 11.8 µM. The GI50 was 13.1 µM in test [7], 18.5 µM in test [8], 6.51 µM in [9] and 16.1 µM in test [10]. Moreover, the TGI in [1] is 30 µM; in test [2], 45 µM; in test [3] it was 27.4 µM; in [4], 15.4 µM; in [5] it was > 100 µM; in test [6] it was 28.5 µM. In addition, the TGI came out at 32.5 µM in test [7], 44.8 µM in [8], 55.4 µM in [9] and 49.1 µM in test [10].
Consider `CC(C)(O)c1cc(Nc2cc(Oc3cn(C4CC4)nc3C3CCOCC3)ccn2)ccn1`, for which the GI50 in test [1] was > 100 µM; in test [2], > 100 µM; in test [3], 52.2 µM; in [4] it was 68 µM; in [5], 73.8 µM; in test [6], 34.8 µM. The GI50 in test [7] is > 100 µM; in test [8], 64.3 µM; in test [9] it was 27.5 µM; in [10], 35.3 µM. In addition, the TGI in [1], in [2], in test [3], in [4], in test [5] and in [6] was > 100 µM in each case. For the same compound, the TGI in test [7], in test [8], in [9] and in test [10] was > 100 µM each time.
Turning to `CC(=O)c1nc(-c2ccc(C[C@@H](CNC(=O)CN(C)C)NC(=O)c3ccc(OC(C)C)c(Cl)c3)cc2)cn1C`, the GI50 in test [1] was 0.0447 µM; in test [2] it was 0.0663 µM; in test [3], < 0.0181 µM; in test [4], 0.024 µM; in [5] it was 0.0615 µM; in [6], 0.0647 µM. Besides, the GI50 in [7] was 0.032 µM; in test [8] it was 0.0338 µM; in [9] it was < 0.0196 µM; in test [10], 0.0398 µM. In addition, the TGI in [1] was determined as 34.7 µM; in test [2], 20.4 µM; in test [3] it was 13.8 µM; in test [4] it was 12.5 µM; in [5], 21.3 µM; in test [6], 21.1 µM. In addition, the TGI in [7] is 11.4 µM; in test [8] it was 7.75 µM; in test [9], 12.9 µM; in [10], 14.4 µM.
As for `S=C(Nc1ccc(-c2nc3ccccc3s2)cc1)Nc1ccc(-c2nc3ccccc3s2)cc1`, the GI50 in test [1] was 18.4 µM; in [2] it was 23.7 µM; in test [3], 11.2 µM; in [4], 20.7 µM; in test [5], 17.8 µM; in test [6] it was 21.1 µM. Further, the GI50 in test [7] was 19.1 µM; in test [8], 17.6 µM; in test [9], 26.4 µM; in test [10] it was 25 µM. For the same compound, the TGI is 70.6 µM in [1]; 67.3 µM in [2]; 26.2 µM in [3]; 55.9 µM in [4]; 47.4 µM in [5]; 44.9 µM in test [6]. Moreover, the TGI in test [7] is 62.5 µM; in test [8], > 100 µM; in test [9], 87.6 µM; in [10], 59 µM.
With `CCOC(=O)C(Cc1cc(OC)c(CC(C(=O)OCC)C(=O)OCC)cc1OC)C(=O)OCC`, the TGI in [1], in test [2], in test [3], in [4], in test [5] and in test [6] was > 100 µM throughout. For the same compound, the TGI in test [7], in test [8], in test [9] and in [10] was > 100 µM throughout.
As to `O=C(OCC1=CC(=O)c2ccccc2C1=O)c1ccccc1`, the GI50 in [1] is 6.73 µM; in [2] it was 4.89 µM; in [3], 15 µM; in [4], 8.13 µM; in [5], 14.3 µM; in test [6] it was 6.28 µM. The GI50 in test [7] is 1.83 µM; in test [8] it was 6.41 µM; in test [9] it was 9.47 µM; in test [10] it was 13.2 µM. The TGI in test [1] came out at 35.4 µM; in test [2], 17.5 µM; in test [3], 28.6 µM; in [4] it was 37.7 µM; in test [5], 51.7 µM; in [6], 24.8 µM. Further, the TGI in test [7] is 3.6 µM; in test [8] it was 20.5 µM; in test [9], 34.5 µM; in test [10] it was 26.8 µM.
On to `CC(C)(C)OC(=O)NCCCCCCCCCCCCn1c2c(c3ccccc3c1=O)C(=O)c1ccccc1-2`, for which the GI50 was 43.3 µM in test [1]; > 100 µM in test [2]; 45 µM in test [3]; > 100 µM in test [4]; 11.9 µM in test [5]; 36.9 µM in test [6]. Also, the GI50 is 91.6 µM in [7], 17.5 µM in test [8], 46.9 µM in test [9] and > 100 µM in [10]. The TGI in [1] is > 100 µM; in test [2] it was > 100 µM; in test [3], > 100 µM; in [4], > 100 µM; in test [5], 63.1 µM; in test [6] it was > 100 µM. Besides, the TGI in test [7] was > 100 µM; in test [8], 53 µM; in test [9] it was > 100 µM; in test [10], > 100 µM.
In the case of `C=C1C(=O)O[C@@H]2C[C@@H](C)[C@@H]3C=CC(=O)[C@@]3(C)[C@@H](OC(=O)CCCC(=O)O[C@H]3[C@@H]4C(=C)C(=O)O[C@@H]4C[C@@H](C)[C@@H]4C=CC(=O)[C@]43C)[C@H]12`, the TGI in test [1] is 1.45 µM; in test [2] it was 0.0432 µM; in [3], 0.0253 µM; in [4], 0.152 µM; in test [5] it was 0.433 µM; in test [6], 0.275 µM. For the same compound, the TGI in test [7] came to 0.957 µM; in test [8] it was 3.13 µM; in test [9], 0.0363 µM; in [10] it was 0.805 µM.
Regarding `CCOC(=O)/C=C/c1ccc([N+](=O)[O-])o1`, the GI50 was 0.518 µM in [1]; 2.38 µM in test [2]; 1.34 µM in test [3]; 3.71 µM in test [4]; 5.74 µM in [5]; 4.12 µM in test [6]. For the same compound, the GI50 in test [7] is 3.17 µM; in test [8], 19.7 µM; in test [9] it was 2.97 µM; in [10], 2.74 µM. In addition, the TGI in test [1] was 10.2 µM; in test [2] it was 7.16 µM; in [3], 3.24 µM; in test [4], 15.1 µM; in test [5], 53.9 µM; in [6], 18.4 µM. The TGI in [7] turned out to be 11.1 µM; in test [8], 48.2 µM; in test [9], 12.9 µM; in test [10] it was 17.2 µM.
With `CCCCC[C@H]1C/C=C2/C(=O)C=C[C@@H]2C/C=C\CCCC(=O)O1`, the GI50 in test [1] is 0.106 µM; in test [2], 0.177 µM; in test [3], 0.0936 µM; in [4], 0.128 µM; in test [5], 0.403 µM; in test [6], 0.16 µM. Also, the GI50 was 0.169 µM in [7], 0.123 µM in test [8], 0.136 µM in test [9] and 0.0884 µM in test [10]. Also, the TGI in test [1] is 5 µM; in test [2] it was 1.06 µM; in test [3] it was 0.236 µM; in test [4] it was 0.278 µM; in test [5], 16.8 µM; in [6] it was 0.713 µM. The TGI was 1.94 µM in test [7], 0.298 µM in [8], 22 µM in test [9] and 5.44 µM in [10].

The values are drawn from PubChem BioAssay (NCI).
